US9255072B2, “Pyrazole compounds and thiazole compounds as protein kinases inhibitors” (National Health Rsearch Institutes, priority 2011, dated 2016)
Read-outs that look alike come from different tables or passages of the source.

Molecular target: T1, VEGFR1 (Homo sapiens, UniProt P17948)
T1 construct: GST-VEGFR1 (residues R781-I1338); GST (N); made in house; host or cells: Sf9 insect cells
T1 sequence (P17948 781-1338): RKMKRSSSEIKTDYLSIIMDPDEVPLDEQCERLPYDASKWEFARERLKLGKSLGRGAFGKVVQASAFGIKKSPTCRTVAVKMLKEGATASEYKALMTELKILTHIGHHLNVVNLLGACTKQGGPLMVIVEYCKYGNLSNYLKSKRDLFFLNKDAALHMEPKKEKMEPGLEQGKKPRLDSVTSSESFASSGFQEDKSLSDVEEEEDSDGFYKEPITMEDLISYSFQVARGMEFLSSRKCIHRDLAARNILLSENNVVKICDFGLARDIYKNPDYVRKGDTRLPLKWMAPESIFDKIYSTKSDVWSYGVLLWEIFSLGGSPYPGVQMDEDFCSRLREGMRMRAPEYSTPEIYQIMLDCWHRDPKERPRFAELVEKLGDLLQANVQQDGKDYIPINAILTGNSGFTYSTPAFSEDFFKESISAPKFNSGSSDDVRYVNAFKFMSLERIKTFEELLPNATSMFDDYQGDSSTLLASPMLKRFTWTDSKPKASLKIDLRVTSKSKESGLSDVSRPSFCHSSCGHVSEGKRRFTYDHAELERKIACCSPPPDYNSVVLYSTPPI
Test: VEGFR1 Kinase-Glo kinase assay
Type: biochemical

[1] = VEGFR1 assay, 1 μM ATP, bound in nM, read-out: IC50
[2] = VEGFR1 assay, 1 μM ATP, bound in μM, read-out: IC50
[3] = table of representative values, read-out: IC50 (nM) VEGFR1

Row | SMILES | IC50 [1] [nM] | IC50 [2] [nM] | IC50 [3] [nM]
1 | CCc1cc(NC(=O)Nc2ccc(-c3cnc(Nc4cc(N5CCN(CC)CC5)nc(C)n4)s3)cc2)no1 [Compound 112, N-(5-ethyl-3-isoxazolyl)-N′-[4-(2-[6-(4-ethylpiperazino)-2-methyl-4-pyrimidinyl]amino-1,3-thiazol-5-yl)phenyl]urea] | < 100 | < 1000 | 20
2 | CCc1cc(NC(=O)Nc2ccc(-c3cnc(Nc4cc(N5CCC(N)C5)nc(C)n4)s3)cc2)no1 (stereo not drawn) [Compound 119, N-[4-(2-[6-(3-aminotetrahydro-1H-1-pyrrolyl)-2-methyl-4-pyrimidinyl]amino-1,3-thiazol-5-yl)phenyl]N′-(5-ethyl-3-isoxazolyl)urea] | < 100 | < 1000 | 63
